In patent US20240287138A1, “CYCLIC PEPTIDES FOR INHIBITING TNF RECEPTOR 1 ACTIVITY” (Merck Sharp & Dohme LLC, priority 2023, published 2024):
pKd: −log10 of the molar value. Numbered stars: 1 amine (or outer) side, 2 acyl side, 3 side chain; on linkers, the order of the positions; unused ones are H or OH. Square brackets hold non-standard residues; d marks the D form. Peptide text beside a SMILES is read from it. Trp(βS-Me,7-OMe) = COc1cccc2c([C@H](C)[C@H](N)C(=O)O)c[nH]c12; Trp(7-CN) = N#Cc1cccc2c(C[C@H](N)C(=O)O)c[nH]c12; Phe(4-CONH2) = NC(=O)c1ccc(C[C@H](N)C(=O)O)cc1; Phe(4-COOH) = N[C@@H](Cc1ccc(C(=O)O)cc1)C(=O)O; Pip(5R-OH) = O=C(O)[C@@H]1CC[C@@H](O)CN1; X1 = O=C([C@@H]1CC[C@H](N[*:1])C1)[*:2]; 4Pal = N[C@@H](Cc1ccncc1)C(=O)O; dHyp = O=C(O)[C@H]1C[C@H](O)CN1; αMeS = C[C@](N)(CO)C(=O)O; Nle = CCCC[C@H](N)C(=O)O; Sar = CNCC(=O)O

Tests used:
human TNFR2 ECD protein = molecular target: T1, human TNFR2 ECD protein (Homo sapiens, UniProt P20333); test: SPR off-target binding (selectivity) to human TNFR2 ECD
T1 construct: HRV 3C protease cleavage site (C); 6His (C, cleaved yes); made in house; host or cells: Sf21 insect cells (baculovirus), secreted
T1 sequence (P20333 23-257): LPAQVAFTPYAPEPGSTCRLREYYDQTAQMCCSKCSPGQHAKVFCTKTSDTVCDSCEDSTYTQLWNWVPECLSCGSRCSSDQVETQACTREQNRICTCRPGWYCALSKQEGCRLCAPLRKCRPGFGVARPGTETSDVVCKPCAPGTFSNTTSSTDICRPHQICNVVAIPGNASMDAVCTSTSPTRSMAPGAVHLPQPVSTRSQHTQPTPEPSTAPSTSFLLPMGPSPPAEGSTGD
Outline: (§1)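 SPR kinetics: peptides over captured avi-biotinylated receptor ECDs, TNFR1 for affinity, TNFR2 run in parallel for off-target binding. Running buffer HEPES pH 7.4 with 150 mM NaCl, 3 mM EDTA, 0.05% P20, 2% DMSO; surface regenerated between analytes. Affinity derived from kon/koff.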

[1] = molecular target: T2, human TNFR1 extracellular domain (ECD) protein (Homo sapiens, UniProt P19438); test: SPR binding affinity to captured human TNFR1 ECD
T2 construct: HRV 3C protease cleavage site (C); 6His (C, cleaved yes); made in house; host or cells: Sf21 insect cells (baculovirus), secreted
T2 sequence (P19438 30-211): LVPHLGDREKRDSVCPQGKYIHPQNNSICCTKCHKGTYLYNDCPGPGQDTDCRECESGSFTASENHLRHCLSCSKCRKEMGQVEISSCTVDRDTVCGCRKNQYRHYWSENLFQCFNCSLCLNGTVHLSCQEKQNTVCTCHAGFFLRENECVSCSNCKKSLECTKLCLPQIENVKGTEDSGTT
Outline: as §1

[2] = molecular target: T3, human soluble TNFR1 (sTNFR1) (Homo sapiens, UniProt P19438); test: Human sTNFR1-peptide displacement assay (LanthaScreen Eu TR-FRET binding assay)
T3 construct: made in house; host or cells: Sf21 (baculovirus)
T3 sequence (P19438 with tags, fused parts or gaps): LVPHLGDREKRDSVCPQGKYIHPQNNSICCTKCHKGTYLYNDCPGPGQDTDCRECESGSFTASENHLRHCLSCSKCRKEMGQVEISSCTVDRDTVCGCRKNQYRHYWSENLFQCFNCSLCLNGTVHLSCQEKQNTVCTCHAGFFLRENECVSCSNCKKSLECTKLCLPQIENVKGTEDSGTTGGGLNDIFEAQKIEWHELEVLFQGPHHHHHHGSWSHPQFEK
Outline: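 Readout is the 665/615 nm TR-FRET ratio (Eu anti-His donor, streptavidin-Alexa647 acceptor), normalized to DMSO and saturating displacer, fit by Morrison-based five-parameter logistic for Kd^app. His-tagged sTNFR1 (1-211) prebound to 100 nM biotinylated peptide SEQ ID NO.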

`CCCC[C@@H]1NC(=O)[C@@H]2CC[C@@H](C2)NC(=O)[C@H]([C@@H](C)c2c[nH]c3c(OC)cccc23)NC(=O)CN(C)C(=O)[C@H](Cc2ccc(C(N)=O)cc2)NC(=O)[C@H](Cc2ccc(C(N)=O)cc2)NC(=O)[C@](C)(CO)NC(=O)[C@H](Cc2c[nH]c3c(C#N)cccc23)NC(=O)[C@H](Cc2ccc(C(=O)O)cc2)NC(=O)[C@H](CC(N)=O)NC(=O)[C@H]2C[C@H](OC)CN2C(=O)[C@H](Cc2c[nH]c3ccccc23)NC(=O)[C@@H]2CC[C@@H](O)CN2C(=O)[C@H](Cc2ccncc2)NC1=O` [SEQ ID NO. 14] (cyclo([4Pal][Pip(5R-OH)]W[dHyp](Me)N[Phe(4-COOH)][Trp(7-CN)][αMeS][Phe(4-CONH2)][Phe(4-CONH2)][Sar][Trp(βS-Me,7-OMe)][X1][Nle])) was tested, and the pKd (human TNFR2 ECD protein) was < 6.00, the pKd [1] was 10.70 and the pKd [2] was 10.52.
